From publication PMC7467771, “Lipophilic Arginine Esters: The Gateway to Preservatives without Side Effects” (Molecular Pharmaceutics, 2020)

How the values were obtained:
Assay type in all cases: cell-based
red blood cells (RBC) = assay: hemolysis study; settings: human RBC, 1 h, 37 °C, PBS pH 7.4
Description: The hemolysis test was performed with red blood cells (RBC) to evaluate the potential toxic effect of Arg-surfactants on human cells.[18] Human RBC concentrate was kindly donated by the Tirol Kliniken GmbH, Innsbruck, Austria, and stored at 4 °C until use. RBC concentrate (0.556 mL) was freshly diluted by adding sterile Dulbecco’s PBS (pH 7.4) (1.944 mL) before the test to obtain an equivalent amount of whole blood (EWB). Then EWB was 50 times diluted in sterile Dulbecco’s PBS (pH 7.4). The diluted blood on visual inspection was turbid and settled down upon leaving undisturbed, indicating no cell lysis. Arg-surfactant stock solutions were prepared in the concentration range of 10–5000 μg mL^–1 in PBS. For comparison, BAC and cetrimide solutions were prepared in the same concentration range in PBS. For the assay, 10 μL of each test sample was mixed with 190 μL of diluted blood, resulting in the testing final concentrations of 0.5–250 μg mL^–1. For the positive control, 10 μL of 20% v/v Triton X-100 and, for the negative control, 10 μL of sterile Dulbecco’s PBS were mixed with 190 μL of diluted blood. All samples and controls were incubated for 1 h at 37 °C with shaking. After centrifugation at 10 000 rpm for 60 s, aliquots of 100 μL were withdrawn from the supernatants and transferred to a 96-well plate. Absorbance was measured at a wavelength of 420 nm. The extent of hemolysis as a percentage was determined by using the following equation: [drawing 6]

Caco-2 cell membrane = assay: fluorescence anisotropy (DPH), membrane fluidity; settings: DPH-labeled Caco-2 cells
Description: To evaluate membrane fluidity by fluorescence spectroscopy, a method described by Aricha et al. was adapted.[17] Caco-2 cells were labeled with fluorescent probe DPH (1,6-diphenyl-1,3,5-hexatriene). For this, a 1 mM solution of DPH was prepared in acetone. A Caco-2 cell monolayer in a 15 mL cell flask after washing with sterile PBS was trypsinized and resuspended in 10 mM HBS (pH 7.4) at a concentration of 2 × 10^5 cells mL^–1. Then a 1 mM DPH solution (10 μL) was added to a Caco-2 cell suspension (5 mL) and kept for incubation at 37 °C in the dark. After 1 h, cells were centrifuged at 588 rpm for 3 min, and solvent was removed to get rid of the free probe. Cells were resuspended in the same volume of HBS. Samples of Arg-surfactants were prepared in HBS in concentrations of 2000, 1000, and 500 μg mL^–1. Then each sample solution was mixed with a DPH-labeled cell suspension in equal volumes and incubated at room temperature in the dark. HBS mixed in an equal volume with the DPH-labeled cell suspension was used as a control. At specific time points, fluorescence polarization data were obtained using an excitation wavelength of 350 nm and an emission wavelength of 420 nm, and anisotropy was calculated using the following equation: [drawing 5] where I∥ and I⊥ are the fluorescence intensities parallel and perpendicular to the direction of the excitation light beam.

[1] = test system: Enterococcus faecalis ATCC 19433; assay: MIC testing by the microdilution method; settings: Enterococcus faecalis, ATCC19433, read-out: minimum inhibitory concentration
Description: (§1) Following bacterial strains were used for antimicrobial susceptibility testing: Escherichia coli ATCC 25922, Staphylococcus aureus ATCC 29213, Bacillus subtilis ATCC 6633, and Enterococcus faecalis ATCC 19433, which were obtained from the American Type Culture Collection (ATCC, Virginia, USA).
(§2) The MIC is the lowest concentration of a substance that leads to a clearly visible growth inhibition after a defined incubation period. To evaluate the MIC of Arg-DT, Arg-OL, BAC, and cetrimide, a microdilution test was performed according to the guidelines of the Clinical and Laboratory Standards Institute.[19] First of all, similarly, as for the disk diffusion test, microorganisms were dissolved in saline and set to a 0.5 McFarland standard turbidity. This corresponds to a bacterial concentration of 1.5 × 10^8 colony-forming units per milliliter (CFU mL^–1); 50 μL of the bacterial suspension was added to 10 mL of Mueller Hinton Bouillon (MHB, Becton Dickinson, New Jersey, USA). The stock solutions were prepared as follows: the test compounds Arg-OL, Arg-DT, BAC, and cetrimide were dissolved in water with 10% (v/v) DMSO at a concentration of 10 mg mL^–1. The obtained solutions were used to prepare serial dilutions. The tested concentration for each substance ranged from 5000 to 5 μg mL^–1. Each test sample was added to a flat-bottomed tissue plate well in the volume of 75 μL. The first well of the tissue plate containing 75 μL of water with 10% (v/v) DMSO instead of any test sample was used as a positive control. Finally, 75 μL of the bacterial suspension was added to each well, and the plates were incubated at 37 °C overnight.
(§3) Before measuring the optical density (OD), plates were shaken for 15 min at 250 rpm. The OD was measured using the Bio-Rad 680 microplate reader (Hercules, California, USA) at a wavelength of 490 nm. Inhibition of bacterial growth was defined as a reduction of growth for at least 5 log units. Experiments were performed three times under analogous conditions for each bacterial strain and each tested sample.

[2] = test system: Staphylococcus aureus ATCC 29213; assay: MIC testing by the microdilution method; settings: Staphylococcus aureus, ATCC29213, read-out: minimum inhibitory concentration
Description: as §1, §2, §3

[3] = test system: Bacillus subtilis ATCC 6633; assay: MIC testing by the microdilution method; settings: Bacillus subtilis, ATCC6633, read-out: minimum inhibitory concentration
Description: as §1, §2, §3

[4] = test system: Escherichia coli ATCC 25922; assay: MIC testing by the microdilution method; settings: Escherichia coli, ATCC25922, read-out: minimum inhibitory concentration
Description: as §1, §2, §3

SMILES	HC50 (concentration causing lysis of 50% red blood cells) (red blood cells (RBC))	changes in anisotropy (Caco-2 cell membrane; < 1000 μg mL^–1)	MIC [1]	MIC [2]	MIC [3]	MIC [4]	decrease in the anisotropy value as compared to the control (Caco-2 cell membrane; within 2 h)
CCCCCCCCCCCCC(CCCCCCCCCC)COC(=O)[C@@H](N)CCCNC(=N)N.O=C(O)C(F)(F)F (stereo partly drawn) [Arg-DT, 2-Decyltetradecyl Argininate Trifluoroacetate]	125 μg mL^–1	not significant	10 µg/mL	10 µg/mL	5 µg/mL	39 µg/mL	–
CCCCCCCCC=CCCCCCCCCOC(=O)[C@@H](N)CCCNC(=N)N.O=C(O)C(F)(F)F [Arg-OL, Octadec-9-en-1-yl Argininate Trifluoroacetate]	60 μg mL^–1	–	5 µg/mL	10 µg/mL	5 µg/mL	20 µg/mL	> 30%
